Experimental data reported in ChEMBL document CHEMBL1156514, “Chemical genetics define the roles of p38alpha and p38beta in acute and chronic inflammation” (J Biol Chem, 2007).
The source made the active and inactive calls. The calls are words filed in the database; no cut-off is given here.

How the values were obtained:
[1] = target: Mitogen-activated protein kinase 11 (Homo sapiens, UniProt Q15759, T106M); test: Inhibition of p38beta T106M mutant
[2] = target: Mitogen-activated protein kinase 14 (Homo sapiens, UniProt Q16539); test: Inhibition of wild type p38alpha
Mitogen-activated protein kinase 14 (Homo sapiens, UniProt Q16539), sequence (Q16539 whole entry): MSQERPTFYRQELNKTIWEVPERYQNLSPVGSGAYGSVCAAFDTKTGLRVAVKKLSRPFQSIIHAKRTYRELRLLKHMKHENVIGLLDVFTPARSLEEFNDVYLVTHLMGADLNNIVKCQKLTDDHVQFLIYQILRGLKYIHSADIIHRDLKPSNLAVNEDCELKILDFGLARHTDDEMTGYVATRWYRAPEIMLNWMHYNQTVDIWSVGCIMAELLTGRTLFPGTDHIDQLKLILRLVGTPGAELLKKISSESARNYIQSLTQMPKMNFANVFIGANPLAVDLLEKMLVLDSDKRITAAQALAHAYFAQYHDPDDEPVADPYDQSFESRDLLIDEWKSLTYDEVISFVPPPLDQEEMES

Mus musculus [3] = test: Inhibition of collagen antibody-induced arthritis in p38alpha T106M mutant expressing C57BL/6 mouse at 3 mg/kg, po administered daily once 24 hrs after LPS challenge; format: functional, organism-based; set-up: dose 3 mg/kg
[4] = Inhibition of LPS-stimulated TNFalpha production in p38beta T106M mutant expressing mouse peritoneal exudates cells by ELISA; format: functional
[5] = target: Mitogen-activated protein kinase 14 (Homo sapiens, UniProt Q16539, T106M); test: Inhibition of p38alpha T106M mutant
Mitogen-activated protein kinase 14 (Homo sapiens, UniProt Q16539, T106M), sequence (Q16539 2-360 T106M limits assumed): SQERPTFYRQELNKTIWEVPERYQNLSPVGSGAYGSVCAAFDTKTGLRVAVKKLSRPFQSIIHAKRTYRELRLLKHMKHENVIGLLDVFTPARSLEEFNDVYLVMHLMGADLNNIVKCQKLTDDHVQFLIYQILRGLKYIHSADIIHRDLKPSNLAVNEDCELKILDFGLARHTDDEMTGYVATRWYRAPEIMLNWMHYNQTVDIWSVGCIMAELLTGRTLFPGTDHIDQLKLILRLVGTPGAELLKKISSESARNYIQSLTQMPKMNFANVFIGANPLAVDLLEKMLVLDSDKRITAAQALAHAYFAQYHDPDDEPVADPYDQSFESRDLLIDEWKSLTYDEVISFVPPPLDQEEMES

Mus musculus [6] = test: Inhibition of collagen antibody-induced arthritis in p38beta T106M mutant expressing C57BL/6 mouse at 3 mg/kg, po administered daily once 24 hrs after LPS challenge; format: functional, organism-based; set-up: dose 3 mg/kg
Mus musculus [7] = test: Inhibition of collagen antibody-induced arthritis in wild type C57BL/6 mouse at 3 mg/kg, po administered daily once 24 hrs after LPS challenge; format: functional, organism-based; set-up: dose 3 mg/kg
[8] = Inhibition of LPS-stimulated TNFalpha production in p38beta deficient mouse peritoneal exudates cells by ELISA; format: functional
[9] = Inhibition of LPS-stimulated TNFalpha production in p38alpha expressing mouse peritoneal exudates cells by ELISA; format: functional
[10] = Inhibition of LPS-stimulated TNFalpha production in p38alpha T106M mutant expressing mouse peritoneal exudates cells by ELISA; format: functional
[11] = target: Mitogen-activated protein kinase 11 (Homo sapiens, UniProt Q15759); test: Inhibition of wild type p38beta
Mitogen-activated protein kinase 11 (Homo sapiens, UniProt Q15759), sequence (Q15759 whole entry): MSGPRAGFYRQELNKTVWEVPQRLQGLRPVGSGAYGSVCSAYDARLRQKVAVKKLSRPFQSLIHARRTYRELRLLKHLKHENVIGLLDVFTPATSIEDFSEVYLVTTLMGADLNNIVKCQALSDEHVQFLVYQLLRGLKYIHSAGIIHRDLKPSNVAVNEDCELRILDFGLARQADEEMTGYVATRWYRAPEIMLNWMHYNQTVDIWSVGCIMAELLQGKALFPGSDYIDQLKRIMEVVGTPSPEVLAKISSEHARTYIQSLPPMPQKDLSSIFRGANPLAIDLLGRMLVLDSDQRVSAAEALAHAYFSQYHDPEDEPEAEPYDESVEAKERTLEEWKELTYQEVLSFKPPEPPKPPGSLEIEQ

Mus musculus [12] = test: Inhibition of LPS-stimulated TNFalpha production in wild type C57BL/6 mouse plasma at 3 mg/kg, po after 90 mins by ELISA; format: functional, organism-based; set-up: dose 3 mg/kg
Mus musculus [13] = test: Inhibition of LPS-stimulated TNFalpha production in p38beta deficient C57BL/6 mouse plasma at 3 mg/kg, po after 90 mins by ELISA; format: functional, organism-based; set-up: dose 3 mg/kg
Mus musculus [14] = test: Inhibition of LPS-stimulated TNFalpha production in p38beta T106M mutant expressing C57BL/6 mouse plasma at 3 mg/kg, po after 90 mins by ELISA; format: functional, organism-based; set-up: dose 3 mg/kg
Mus musculus [15] = test: Inhibition of LPS-stimulated TNFalpha production in p38alpha T106M mutant expressing C57BL/6 mouse plasma at 3 mg/kg, po after 90 mins by ELISA; format: functional, organism-based; set-up: dose 3 mg/kg

Mitogen-activated protein kinase 11 (Homo sapiens, UniProt Q15759, T106M), sequence (Q15759 whole entry T106M): as the sequence (Q15759 whole entry) above, with T106M counted along it

IC50 [1]	IC50 [2]	IC50 [4]	IC50 [5]	IC50 [8]	IC50 [9]	IC50 [10]	IC50 [11]	Compound	Activity (Mus musculus [3])	Activity (Mus musculus [6])	Activity (Mus musculus [7])	Activity (Mus musculus [12])	Activity (Mus musculus [13])	Activity (Mus musculus [14])	Activity (Mus musculus [15])
260 nM	0.08 nM	8.3 nM	28 nM	6.8 nM	3.5 nM	> 250 nM	0.25 nM	CC(C)(C)N1CCC(c2cc(-c3ccc(F)cc3F)c3ccc(=O)n(-c4c(Cl)cccc4Cl)c3c2)CC1	inactive	Active	Active				
								C[C@H](Nc1cc(-c2c(-c3cccc(C(F)(F)F)c3)nc(C3CCNCC3)n2C)ccn1)c1ccccc1				Active	Active	Active	inactive
